Measured values published in PMC7725003, “Systematically Studying the Optimal Amino Acid Distribution Patterns of the Amphiphilic Structure by Using the Ultrashort Amphiphiles” (Frontiers in Microbiology, 2020).
Where no end group is shown, it is not given here.

What was measured:
S. aureus 29213 [1] = assay: Salt sensitivity assay (MIC); type: cell-based, Staphylococcus aureus; conditions: for MIC, FeCl3: 4 μM FeCl3; for MIC, NH4Cl: 6 μM NH4Cl; for MIC, ZnCl2: 8 μM ZnCl2; for MIC, MgCl2: 1 mM MgCl2; for MIC, CaCl2: 2 mM CaCl2; for MIC, KCl: 4.5 mM KCl; for MIC, NaCl: 150 mM NaCl; for MIC, Control: no added salt, three independent assays
In short: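 MICs determined by broth microdilution in MHB with 0.5–1 × 10^6 CFU/mL, peptides serially diluted in 0.2% BSA, 24 h at 37°C. Medium supplemented with physiological salts (150 mM NaCl, 4.5 mM KCl, 6 μM NH4Cl, 8 μM ZnCl2, 1 mM MgCl2, 2mM CaCl2, 4 μM FeCl3). MIC = lowest concentration inhibiting 95% growth (A492).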

S. typhimurium 7731 = type: cell-based, Salmonella typhimurium; conditions: 7731, 24 h
In short: (§1)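 Absorbance at 492 nm after 24 h at 37°C defined the MIC as the lowest peptide level inhibiting 95% of growth. Inoculum was 0.5–1 × 10^6 CFU mL^–1 mid-log cells in MHB; peptides were diluted in 0.2% BSA.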

S. typhimurium 14028 = type: cell-based, Salmonella typhimurium; conditions: 14028, 24 h
In short: as §1

E. coli K99 = system: E. coli K99
In short: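 Peptides were serially diluted in 0.2% BSA and added to mid-logarithmic cells diluted in MHB to 0.5–1 × 10^6 CFU mL^–1. Assays followed an adapted NCCLS protocol.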

Gram-positive bacteria = conditions: geometric mean of MBCs, 7 Gram-positive strains (Table 2)
E. coli ATCC 25922 [2] = assay: Salt sensitivity assay (MIC); type: cell-based, Escherichia coli; conditions: for MIC, FeCl3: 4 μM FeCl3; for MIC, NH4Cl: 6 μM NH4Cl; for MIC, ZnCl2: 8 μM ZnCl2; for MIC, MgCl2: 1 mM MgCl2; for MIC, CaCl2: 2 mM CaCl2; for MIC, KCl: 4.5 mM KCl; for MIC, NaCl: 150 mM NaCl; for MIC, Control: no added salt, three independent assays
In short: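 The salt sensitivity of peptides was tested against E. coli ATCC 25922 using a modified NCCLS broth microdilution MIC method. Mid-log bacteria were diluted in MHB to 0.5–1 × 10^6 CFU mL^–1 and mixed in equal volumes with peptides serially diluted in 0.2% BSA in 96-well plates. Physiological salt was added where specified, and the assay was done three independent times.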

S. aureus 29213 [3] = assay: Time-kill kinetics; type: cell-based, Staphylococcus aureus; conditions: 1 × MIC concentration (Figure 5 legend: 1× MBC); mean of three independent experiments
Text: (§2) The kinetics of the sterilization activity of the peptide was further evaluated. […] The results of the kinetic were the mean values of three independent experiments, and each independent experiment contained three technical replicates.

E. coli ATCC 25922 [4] = assay: Outer membrane permeabilization (NPN uptake); type: cell-based, Escherichia coli; conditions: at 16 μM peptide
Procedure: Mid-log phase E. coli ATCC 25922 cells (OD600 = 0.2) were incubated with NPN (10 μM) in 5 mM HEPES buffer (pH 7.4, containing 5 mM glucose) for 30 min. The background fluorescence was recorded for subtraction (excitation λ = 350 nm, emission λ = 420 nm) with an F-4500 fluorescence spectrophotometer (Hitachi, Japan). Subsequently, 100 μL of cell suspension was mixed with equal volumes of the peptide solution at concentrations that ranged from 1 to 64 μM in a sterile 96-well black plate. The fluorescence was recorded over time until no further fluorescence increase was detectable. Each test was performed independently in triplicate, and the results were converted to the percentage of NPN uptake using the equation:
where Fobs is the observed fluorescence at a given peptide concentration, F0 is the initial fluorescence of NPN with microbial cells in the absence of peptide, and F100 is the fluorescence of NPN with microbial cells upon the addition of 10 μg/mL polymyxin B (Sigma) (for bacteria) as a positive control.

[5] = system: all of the tested bacterial strains; assay: Geometric mean of MICs, all tested bacterial strains; type: cell-based; conditions: for GM, All: geometric mean of MICs across all tested strains; for TI, All: therapeutic index TI = MHC/GM MIC
In short: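 Mid-log bacteria at 0.5–1 × 10^6 CFU mL^–1 in MHB with peptides serially diluted in 0.2% BSA, 24 h at 37°C. MIC is the lowest concentration giving 95% growth inhibition by A492. MBC is the lowest giving >99.9% kill on agar subculture, and the GM is taken over all strains.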

Gram-negative bacteria = conditions: geometric mean of MBCs, 9 Gram-negative strains (Table 2)
E. coli 25922 = assay: Time-kill kinetics; type: cell-based, Escherichia coli; conditions: 1 × MIC concentration (Figure 5 legend: 1× MBC); mean of three independent experiments
Text: as §2

E. coli ATCC 25922 [6] = assay: Cytoplasmic membrane depolarization (DiSC3-5); type: cell-based, Escherichia coli; conditions: DiSC3-5 release, at all concentrations
Procedure: Mid-log phase E. coli ATCC 25922 cells (OD600 = 0.05) were incubated with 0.4 μM DiSC3-5 and 100 mM K ^+ in 5 mM HEPES buffer (pH 7.4, containing 20 mM glucose) until a steady decrease in fluorescence was achieved. The background fluorescence (excitation λ = 622 nm, emission λ = 670 nm) was recorded with an F-4500 fluorescence spectrophotometer (Hitachi, Japan). Subsequently, 2 mL of the cell suspension was added to a 1-cm quartz cuvette and mixed with various concentrations of peptide. The change in fluorescence in C-1, C-2, and C-3 was recorded from 0 to 1,000, 2,000, and 2,500 s, respectively.

Row | Substance | MIC, FeCl3 (S. aureus 29213 [1]) [µM] | MIC, NH4Cl (S. aureus 29213 [1]) [µM] | MIC, ZnCl2 (S. aureus 29213 [1]) [µM] | MIC, MgCl2 (S. aureus 29213 [1]) [µM] | MIC, CaCl2 (S. aureus 29213 [1]) [µM] | MIC, KCl (S. aureus 29213 [1]) [µM] | MIC, NaCl (S. aureus 29213 [1]) [µM] | MIC, Control (S. aureus 29213 [1]) [µM] | MBC (S. typhimurium 7731) [µM] | MIC (S. typhimurium 7731) [µM] | MBC (S. typhimurium 14028) [µM] | MIC (S. typhimurium 14028) [µM] | MIC, FeCl3 (E. coli ATCC 25922 [2]) [µM] | MIC, NH4Cl (E. coli ATCC 25922 [2]) [µM] | MIC, ZnCl2 (E. coli ATCC 25922 [2]) [µM] | MIC, MgCl2 (E. coli ATCC 25922 [2]) [µM] | MIC, CaCl2 (E. coli ATCC 25922 [2]) [µM] | MIC, KCl (E. coli ATCC 25922 [2]) [µM] | MIC, NaCl (E. coli ATCC 25922 [2]) [µM] | MIC, Control (E. coli ATCC 25922 [2]) [µM] | other results
1 | RLRLRLRLL-NH2 [L5] | 8 | 8 | 8 | 8 | 16 | 8 | 64 | 8 | 8 | 4 | 8 | 4 | 0.5 | 0.5 | 0.5 | 0.5 | 2 | 0.5 | 4 | 2 | MIC (E. coli K99; MHB, 24 h 37°C, 95% growth inhibition): 4 µM; MBC (E. coli K99; value in brackets, >99.9% of cells killed): 8 µM; GM MBC (Gram-positive bacteria): 11.89 µM; time to clear off the growth of 99.99% of bacteria (S. aureus 29213 [3]): ≤ 0.08 min; outer membrane permeabilization (NPN uptake) (E. coli ATCC 25922 [4]): approximately 50%; GM, All [5]: 4.18 µM; TI, All [5]: 61.24; GM MBC (Gram-negative bacteria): 6.35 µM; time to obliterate the growth of 99.99% of bacteria (E. coli 25922): ≤ 3 min
2 | RWRWRWRWW-NH2 [W5] | 1 | 2 | 2 | 4 | 2 | 4 | 2 | 2 | 8 | 4 | 8 | 4 | 4 | 4 | 4 | 2 | 4 | 4 | 4 | 2 | time to cytoplasmic membrane depolarization / highest fluorescence intensity (E. coli ATCC 25922 [6]): ≤ 300 s; time to clear off the growth of 99.99% of bacteria (S. aureus 29213 [3]): ≤ 3 min; outer membrane permeabilization (NPN uptake) (E. coli ATCC 25922 [4]): approximately 100%; GM, All [5]: 2.38 µM; TI, All [5]: 107.56; time to obliterate the growth of 99.99% of bacteria (E. coli 25922): ≤ 0.25 min
